Experimental data: patent publication US11370771B2, “Inhibitors of TRPC6” (Boehringer Ingelheim International GmbH, priority 2018, dated 2022)

Legend:
human TRPC6 [1] = target: T1, human TRPC6 (Homo sapiens, UniProt Q9Y210); assay: High Throughput Screening Assay Method 1 (FLIPR membrane potential dye, OAG activation, HEK293 cells expressing human TRPC6); assay type: cell-based; settings: antagonist effect against human TRPC6, 60 μM OAG, read-out: Fluorescence TRPC6 IC50
T1 construct: expressed in transfected cells
T1 sequence (Q9Y210 1-931): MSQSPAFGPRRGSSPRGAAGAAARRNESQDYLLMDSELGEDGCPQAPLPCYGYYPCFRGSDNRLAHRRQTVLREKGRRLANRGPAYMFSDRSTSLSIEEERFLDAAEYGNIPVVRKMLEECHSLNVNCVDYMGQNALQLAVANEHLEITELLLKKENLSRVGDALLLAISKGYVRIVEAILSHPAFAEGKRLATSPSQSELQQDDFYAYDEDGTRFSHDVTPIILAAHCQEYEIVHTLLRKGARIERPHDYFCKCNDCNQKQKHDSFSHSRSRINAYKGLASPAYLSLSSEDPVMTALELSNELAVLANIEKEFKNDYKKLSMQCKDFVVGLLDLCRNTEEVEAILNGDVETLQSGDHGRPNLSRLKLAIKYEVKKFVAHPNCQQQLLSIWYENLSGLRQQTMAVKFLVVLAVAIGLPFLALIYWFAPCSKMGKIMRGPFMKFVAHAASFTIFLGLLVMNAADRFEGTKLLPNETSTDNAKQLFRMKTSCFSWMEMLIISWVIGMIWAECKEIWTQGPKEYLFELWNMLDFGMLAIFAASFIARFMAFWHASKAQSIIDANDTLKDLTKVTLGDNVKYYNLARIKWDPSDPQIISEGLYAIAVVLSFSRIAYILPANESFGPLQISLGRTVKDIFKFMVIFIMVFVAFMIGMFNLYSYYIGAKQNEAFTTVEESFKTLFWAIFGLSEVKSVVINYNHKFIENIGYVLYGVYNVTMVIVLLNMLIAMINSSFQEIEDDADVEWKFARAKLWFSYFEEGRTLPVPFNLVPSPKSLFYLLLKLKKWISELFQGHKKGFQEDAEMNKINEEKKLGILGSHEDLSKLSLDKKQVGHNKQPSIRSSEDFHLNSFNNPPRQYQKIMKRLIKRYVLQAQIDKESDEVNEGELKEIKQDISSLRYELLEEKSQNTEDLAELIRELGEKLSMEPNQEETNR
Description: (§1) This screening assay measures TRPC6 (transient receptor potential cation channel, subfamily C, member 6) ion channel activation via addition either of the commercially available DAG ligand analogue OAG (1-oleoyl-2-acetyl-sn-glycerol) or of the TRPC6 agonist 1-[1-(4,5,6,7,8-pentahydrocyclohepta[2,1-d]thiophen-2-ylcarbonyl)-4-piperidyl]-3-hydrobenzimidazol-2-one (GSK1702934A). The assay utilizes a FLIPR membrane potential (FMP) dye from Molecular Devices, which is a voltage sensitive indicator with a fluorescent quencher. Changes in membrane potential as measured by the fluorescent signal increase during membrane depolarization provide a measurement of channel activity.
The commercially available HEK293 cell line expressing human TRPC6 channel (Axxam/PerkinElmer) is scaled up in bulk and frozen in liquid nitrogen. Frozen cell stocks are thawed and re-suspended in culture media as recommended by the manufacturer supplemented with 0.5 mg/ml of geneticin to promote retention of the TRPC6 construct. Cells are plated at a density of 15,000 cells/well in Greiner 384 well poly-D-lysine coated black clear bottom plates, and incubated for 18-20 h at 37° C. and 5% CO2. To initiate the assay, the growth media is removed using a plate washer and 25 ul of a FMP dye mix is added to each well. The 4× stock FMP dye from the manufacturer is diluted 1× with assay buffer (low calcium Tyrode's assay buffer: 130 mM NaCl, 5 mM KCl, 0.15 mM CaCl2), 1 mM MgCl2, 5 mM NaHCO3, 20 mM HEPES pH 7.4) containing 36 μM BAPTA/AM. The cells are incubated at room temperature (19-22° C.) for 30 minutes. For the screening assay, 5 uL of diluted compound stock is added to each well and incubated for 15 minutes at room temperature (19-22° C.). Using the Hamamatsu FDSS6000 or FDSS7000, 10 uL of the synthetic, membrane permeant analog of 1,2 diacylglycerol (DAG), 1-oleoyl-2-acetoyl-n-glycerol (OAG), is added and fluorescent readings taken every second from 50 seconds to 3 minutes. […] Controls and blanks consisted of HEK293 TRPC6 cells that are exposed to OAG. A reference inhibitor added along with the test compound is included as part of the blanks. This inhibitor suppresses the TRPC6 channel activation. These controls set the screening window, and “hits” are defined as those compounds inhibiting the membrane depolarization caused by OAG by at least 50%. IC50 values are determined for compounds that meet these criteria by titrating compound stock at a final starting concentration of 30 μM using a 3-fold serial dilution for 11 points. Curves are generated by fitting each data set to a four-parameter logistic equation using nonlinear regression.

human TRPC6 [2] = target: T1, human TRPC6; assay: High Throughput Screening Assay Method 2 (membrane potential dye, GSK1702934A agonist, HEK293 stably transfected with human TRPC6); assay type: cell-based; settings: antagonist effect against human TRPC6, 3 μM GSK1702934A agonist, HEK293 TRPC6 cells, read-out: Fluorescence TRPC6 IC50
Description: as §1
The commercially available HEK293 cell line (ATCC) was stably transfected with an human TRPC6 gene construct in pcDNA3.1(+) (Thermo Fisher) and screened to find a clone with TRPC6 expression. These cells were maintained in growth medium recommended by the manufacturer supplemented with 400 μg/ml G418 to promote retention of the TRPC6 construct. After growing to near confluency, cells were plated at a density of 15,000 cells/well in clear bottom black walled poly-D-Lys coated 384-well tissue culture treated plates (TwinHelix, cat. #GR 4332 CPL) in growth medium lacking G418, and allowed to grow for 24 hrs. Growth media was removed from the wells and cells were then loaded with 20 μL of 0.5× Membrane Potential sensitive dye (Molecular Devices) in the presence of 30 μM BAPTA-AM (Invitrogen) in Tyrode's assay buffer (130 mM NaCl, 5 mM KCl, 0.15 mM CaCl2), 1 mM MgCl2, 5 mM NaHCO3, 20 mM HEPES, pH 7.4) and incubated for 60 min at room temperature in the dark. Ten μL/well of test compound or controls was added to the wells with the FLIPR^TETRA (Molecular Devices) and incubated for 5 minutes. Compounds were tested at eight concentrations (10, 3.16, 1, 0.316, 0.1, 0.0316, 0.01 and 0.00316 μM diluted in Tyrode's assay buffer and 0.5% DMSO, final concentration) with inter-plate duplicate data points. Subsequently, 15 μL/well of GSK1702934A agonist in Tyrode's assay buffer was added to a final concentration of 3 μM by the FLIPR^TETRA and the signal of the emitted fluorescence (Excitation: 510-545 nm, Emission: 565-625 nm) was recorded for 3 minutes. Negative and positive controls were included on each plate. Negative controls wells consisted of cells exposed to Tyrode's assay buffer and agonist solution, but no test compound. Positive control consisted of cells exposed to […] Verapamil hydrochloride (Tocris, cat. #0654) diluted in Tyrode's assay buffer and 0.5% DMSO final concentration and agonist solution. Inhibition was expressed as a percentage of control, with 0% activity being a result in which the response value of the test wells reached a level identical to the wells containing Verapamil plus GSK1702934A and 100% activity being a result in which the response value of the test wells reached a level identical to the wells containing GSK1702934A alone. Genedata Screener® 14.0.6 was used for data analysis to fit IC50 curves.

## Nc1ccc(N2CCN(C(=O)c3ccc(Oc4ccc(C(F)(F)F)c(F)c4)cc3)CC2)nn1 [Compound 22, 6-(4-{4-[3-fluoro-4-(trifluoromethyl)phenoxy]benzoyl}piperazin-1-yl)pyridazin-3-amine]
Human TRPC6 [1]
  IC50: 8880 nM

## N#Cc1ccc(Oc2ccc(C(=O)N3CCN(c4ccc(N)nn4)CC3)cc2)cc1 [Compound 7, 4-{4-[4-(6-aminopyridazin-3-yl)piperazine-1-carbonyl]phenoxy}benzonitrile]
Human TRPC6 [1]
  IC50: 4670 nM

## Nc1ccc(C2CCN(C(=O)c3ccc(Oc4ccc(F)cc4)cc3)CC2)nn1 [Compound 10, 6-{1-[4-(4-fluorophenoxy)benzoyl]piperidin-4-yl}pyridazin-3-amine]
Human TRPC6 [1]
  IC50: 75 nM

## Nc1ccc(C2CCN(C(=O)c3ccc(Oc4ccc(C5CC5)cc4)cc3)CC2)nn1 [Compound 12, 6-{1-[4-(4-cyclopropylphenoxy)benzoyl]piperidin-4-yl}pyridazin-3-amine]
Human TRPC6 [1]
  IC50: 400 nM

## CCc1ccc(Oc2ccc(C(=O)N3CCN(c4ccc(N)nn4)CC3)cc2)cc1 [Compound 20, 6-{4-[4-(4-ethylphenoxy)benzoyl]piperazin-1-yl}pyridazin-3-amine]
Human TRPC6 [1]
  IC50: 1160 nM

## Nc1ccc(C2CCN(C(=O)c3ccc(Oc4ccccc4)cc3)CC2)cn1 [Compound 1, 5-[1-(4-phenoxybenzoyl)piperidin-4-yl]pyridin-2-amine]
Human TRPC6 [1]
  IC50: 326 nM

## Nc1ccc(N2CCN(C(=O)c3ccc(Oc4ccc(C5CC5)cc4)cc3)CC2)nn1 [Compound 6, 6-{4-[4-(4-cyclopropylphenoxy)benzoyl]piperazin-1-yl}pyridazin-3-amine]
Human TRPC6 [1]
  IC50: 540 nM

## Nc1ccc(C2CCN(C(=O)c3ccc(Oc4ccccc4)cc3)CC2)nn1 [Compound 3, 6-[1-(4-phenoxybenzoyl)piperidin-4-yl]pyridazin-3-amine]
Human TRPC6 [1]
  IC50: 39 nM

## Nc1ccc(C2CCN(C(=O)c3ccc(Oc4ccc(Cl)cc4)cc3)CC2)nn1 [Compound 13, 6-{1-[4-(4-chlorophenoxy)benzoyl]piperidin-4-yl}pyridazin-3-amine]
Human TRPC6 [1]
  IC50: 266 nM

## Nc1ccc(C2CCN(C(=O)c3ccc(Oc4ccc(OC(F)(F)F)cc4)cc3)CC2)nn1 [Compound 4, 6-(1-{4-[4-(trifluoromethoxy)phenoxy]benzoyl}piperidin-4-yl)pyridazin-3-amine]
Human TRPC6 [1]
  IC50: 351 nM

## Nc1ccc(C2CCN(C(=O)c3ccc(Oc4ccc(C(F)(F)F)cc4)cc3)CC2)nn1 [Compound 2, 6-(1-{4-[4-(trifluoromethyl)phenoxy]benzoyl}piperidin-4-yl)pyridazin-3-amine]
Human TRPC6 [1]
  IC50: 504 nM

## CC(C)c1ccc(Oc2ccc(C(=O)N3CCN(c4ccc(N)nn4)CC3)cc2)cc1 [Compound 18, 6-(4-{4-[4-(propan-2-yl)phenoxy]benzoyl}piperazin-1-yl)pyridazin-3-amine]
Human TRPC6 [1]
  IC50: 1310 nM

## CC(=O)c1ccc(Oc2ccc(C(=O)N3CCC(c4ccc(N)nn4)CC3)cc2)cc1 [Compound 16, 1-(4-{4-[4-(6-aminopyridazin-3-yl)piperidine-1-carbonyl]phenoxy}phenyl)ethan-1-one]
Human TRPC6 [1]
  IC50: 2070 nM

## CCc1ccc(Oc2ccc(C(=O)N3CCN(c4ccc(N)nc4)CC3)cc2)cc1 [Compound 14, 5-{4-[4-(4-ethylphenoxy)benzoyl]piperazin-1-yl}pyridin-2-amine]
Human TRPC6 [1]
  IC50: 324 nM

## Nc1ccc(N2CCN(C(=O)c3ccc(Oc4ccc(C(F)(F)F)cc4)cc3)CC2)nn1 [Compound 26, 6-(4-{4-[4-(trifluoromethyl)phenoxy]benzoyl}piperazin-1-yl)pyridazin-3-amine]
Human TRPC6 [1]
  IC50: 3750 nM

## CC(C)c1ccc(Oc2ccc(C(=O)N3CCC(c4ccc(N)nn4)CC3)cc2)cc1 [Compound 17, 6-(1-{4-[4-(propan-2-yl)phenoxy]benzoyl}piperidin-4-yl)pyridazin-3-amine]
Human TRPC6 [1]
  IC50: 2190 nM

## CN(C)C(=O)c1ccc(Oc2ccc(C(=O)N3CCN(c4ccc(N)nn4)CC3)cc2)cc1 [Compound 25, 4-{4-[4-(6-aminopyridazin-3-yl)piperazine-1-carbonyl]phenoxy}-N,N-dimethylbenzamide]
Human TRPC6 [1]
  IC50: 8970 nM

## COc1ccc(Oc2ccc(C(=O)N3CCC(c4ccc(N)nn4)CC3)cc2)cc1 [Compound 9, 6-{1-[4-(4-methoxyphenoxy)benzoyl]piperidin-4-yl}pyridazin-3-amine]
Human TRPC6 [1]
  IC50: 511 nM

## Cc1ccc(Oc2ccc(C(=O)N3CCC(c4ccc(N)nn4)CC3)cc2)cc1 [Compound 5, 6-{1-[4-(4-methylphenoxy)benzoyl]piperidin-4-yl}pyridazin-3-amine]
Human TRPC6 [1]
  IC50: 372 nM

## COc1cc(C(=O)N2CCC(c3cnc(N)cc3OC)CC2)c(F)cc1OCC1CCC1 [Compound 36, 5-{1-[4-(Cyclobutylmethoxy)-2-fluoro-5-methoxybenzoyl]piperidin-4-yl}-4-methoxypyridin-2-amine]
Human TRPC6 [2]
  IC50: 135 nM

## COc1cc(N)ncc1C1CCN(C(=O)c2ccc(OCCC3CC3)cc2F)CC1 [Compound 42, 5-{1-[4-(2-Cyclopropylethoxy)-2-fluorobenzoyl]piperidin-4-yl}-4-methoxypyridin-2-amine]
Human TRPC6 [2]
  IC50: 789 nM

## COc1cc(C(=O)N2CCC(c3cnc(N)cc3OC)CC2)ccc1OCC1CCC1 [Compound 44, 5-{1-[4-(Cyclobutylmethoxy)-3-methoxybenzoyl]piperidin-4-yl}-4-methoxypyridin-2-amine]
Human TRPC6 [2]
  IC50: 199 nM
